Laboratory results as given in ChEMBL document CHEMBL1153072, “Synthesis and structure-activity relationship of dicationic diaryl ethers as novel potent anti-MRSA and anti-VRE agents” (2009).
Converted amounts (≈) assume the structure as drawn.

Experiments:
Format in all cases: functional
[1] = tested on: Staphylococcus epidermidis; test: Antibacterial activity against methicillin-resistant Staphylococcus epidermidis ATCC 51625
Staphylococcus aureus [2] = test: Antibacterial activity against methicillin-resistant Staphylococcus aureus ATCC 33591
Bacteroides fragilis = test: Antibacterial activity against […] ATCC 23745
Staphylococcus aureus [3] = test: Antibacterial activity against multidrug resistant Staphylococcus aureus BAA-39
[4] = tested on: Staphylococcus epidermidis; test: Antibacterial activity against Staphylococcus epidermidis ATCC 12228
Bacillus cereus = test: Antibacterial activity against Bacillus cereus ATCC 11778
Clostridium perfringens = test: Antibacterial activity against Clostridium perfringens ATCC 10388
Staphylococcus aureus [5] = test: Antibacterial activity against Staphylococcus aureus ATCC 29213
Streptococcus pneumoniae = test: Antibacterial activity against Streptococcus pneumoniae ATCC 6301
Candida albicans = test: Antifungal activity against Candida albicans ATCC 90028
Enterococcus faecium = test: Antibacterial activity against vancomycin-resistant Enterococcus faecium ATCC 700221
Bacillus subtilis = test: Antibacterial activity against Bacillus subtilis ATCC 23857
Enterococcus faecalis = test: Antibacterial activity against vancomycin-resistant Enterococcus faecalis ATCC 51575

SMILES | MIC [1] [µg/mL] | MIC (Staphylococcus aureus [2]) [µg/mL] | MIC (Bacteroides fragilis) [µg/mL] | MIC (Staphylococcus aureus [3]) [µg/mL] | MIC [4] [µg/mL] | MIC (Bacillus cereus) [µg/mL] | MIC (Clostridium perfringens) [µg/mL] | MIC (Staphylococcus aureus [5]) [µg/mL] | MIC (Streptococcus pneumoniae) [µg/mL] | MIC (Candida albicans) [µg/mL] | MIC (Enterococcus faecium) [µg/mL] | MIC (Bacillus subtilis) [µg/mL] | MIC (Enterococcus faecalis) [µg/mL]
CC(C)NC(=N)c1ccc2[nH]c(-c3ccc(Oc4ccc(-c5nc6cc(C(=N)NC(C)C)ccc6[nH]5)c(Cl)c4)cc3)nc2c1 | ≤ 0.06 | 0.12 (≈ 0.198 µM) | 4 (≈ 6.61 µM) | 0.5 (≈ 0.826 µM) | ≤ 0.06 | 0.12 (≈ 0.198 µM) | 0.25 (≈ 0.413 µM) | 0.25 (≈ 0.413 µM) | ≤ 0.06 | 2 (≈ 3.3 µM) | ≤ 0.06 | ≤ 0.06 | 0.12 (≈ 0.198 µM)
COc1cc(Oc2ccc(-c3nc4cc(C(=N)NC(C)C)ccc4[nH]3)c(Cl)c2)ccc1-c1nc2cc(C(=N)NC(C)C)ccc2[nH]1 | ≤ 0.06 | 0.25 (≈ 0.394 µM) | > 32 | 0.5 (≈ 0.787 µM) | ≤ 0.06 | 0.12 (≈ 0.189 µM) | 0.25 (≈ 0.394 µM) | 0.25 (≈ 0.394 µM) | ≤ 0.06 | 4 (≈ 6.3 µM) | ≤ 0.06 | ≤ 0.06 | 0.25 (≈ 0.394 µM)
O=C(O)c1cn(C2CC2)c2cc(N3CCNCC3)c(F)cc2c1=O [CIPROFLOXACIN] | ≤ 0.12 | ≤ 0.12 | 0.5 (≈ 1.51 µM) | 8 (≈ 24.1 µM) | ≤ 0.12 | ≤ 0.12 |  | 0.5 (≈ 1.51 µM) |  |  | > 64 | ≤ 0.12 | 0.5 (≈ 1.51 µM)
CC(C)NC(=N)c1ccc2[nH]c(-c3ccc(Oc4ccc(-c5nc6cc(C(=N)NC(C)C)ccc6[nH]5)c(C(F)(F)F)c4)cc3)nc2c1 | 0.12 (≈ 0.188 µM) | 0.25 (≈ 0.391 µM) | 8 (≈ 12.5 µM) | 0.5 (≈ 0.783 µM) | ≤ 0.06 | 0.12 (≈ 0.188 µM) | 0.25 (≈ 0.391 µM) | 0.5 (≈ 0.783 µM) | ≤ 0.06 | 4 (≈ 6.26 µM) | ≤ 0.06 | ≤ 0.06 | 0.12 (≈ 0.188 µM)
CC(C)NC(=N)c1ccc2[nH]c(-c3ccc(Oc4ccc(-c5nc6cc(C(=N)NC(C)C)ccc6[nH]5)nc4)cc3)nc2c1 | 0.12 (≈ 0.21 µM) | 0.5 (≈ 0.875 µM) | 32 (≈ 56 µM) | 0.5 (≈ 0.875 µM) | 0.12 (≈ 0.21 µM) | 0.12 (≈ 0.21 µM) | 0.5 (≈ 0.875 µM) | 0.5 (≈ 0.875 µM) | ≤ 0.06 | 4 (≈ 7 µM) | ≤ 0.06 | ≤ 0.06 | 0.12 (≈ 0.21 µM)
CN[C@H](CC(C)C)C(=O)N[C@H]1C(=O)N[C@@H](CC(N)=O)C(=O)N[C@H]2C(=O)N[C@H]3C(=O)N[C@H](C(=O)N[C@H](C(=O)O)c4cc(O)cc(O)c4-c4cc3ccc4O)[C@H](O)c3ccc(c(Cl)c3)Oc3cc2cc(c3O[C@@H]2O[C@H](CO)[C@@H](O)[C@H](O)[C@H]2O[C@H]2C[C@](C)(N)[C@H](O)[C@H](C)O2)Oc2ccc(cc2Cl)[C@H]1O [VANCOMYCIN] |  |  | 4 (≈ 2.76 µM) |  |  | ≤ 1 | 0.12 (≈ 0.0828 µM) |  | 1 (≈ 0.69 µM) | > 32 | > 64 | 0.12 (≈ 0.0828 µM) | > 64
CCC(CC)NC(=N)c1ccc2[nH]c(-c3ccc(Oc4ccc(-c5nc6cc(C(=N)NC(CC)CC)ccc6[nH]5)cc4)cc3)nc2c1 | 0.25 (≈ 0.399 µM) | 0.25 (≈ 0.399 µM) | 4 (≈ 6.38 µM) | 0.5 (≈ 0.798 µM) | 0.12 (≈ 0.191 µM) | 0.5 (≈ 0.798 µM) | 0.5 (≈ 0.798 µM) | 0.25 (≈ 0.399 µM) | < 0.06 | 4 (≈ 6.38 µM) | < 0.06 | 0.12 (≈ 0.191 µM) | 0.5 (≈ 0.798 µM)
N=C(NC1CCCC1)c1ccc2[nH]c(-c3ccc(Oc4ccc(-c5nc6cc(C(=N)NC7CCCC7)ccc6[nH]5)cc4)cc3)nc2c1 | 0.12 (≈ 0.193 µM) | 0.5 (≈ 0.803 µM) | 32 (≈ 51.4 µM) | 0.5 (≈ 0.803 µM) | 0.12 (≈ 0.193 µM) | < 0.06 | 0.25 (≈ 0.401 µM) | 0.25 (≈ 0.401 µM) | < 0.06 | 2 (≈ 3.21 µM) | < 0.06 | < 0.06 | 0.25 (≈ 0.401 µM)
CC(C)NC(=N)c1ccc2[nH]c(-c3ccc(Oc4ccc(-c5nc6cc(C(=N)NC(C)C)ccc6[nH]5)cc4)cc3)nc2c1 | < 0.06 | 0.12 (≈ 0.21 µM) | 2 (≈ 3.5 µM) | 0.5 (≈ 0.876 µM) | < 0.06 | < 0.06 | 0.5 (≈ 0.876 µM) | 0.25 (≈ 0.438 µM) | < 0.06 | 1 (≈ 1.75 µM) | < 0.06 | < 0.06 | 0.12 (≈ 0.21 µM)
N=C(c1ccc2[nH]c(-c3ccc(Oc4ccc(-c5nc6cc(C(=N)N7CCCCC7)ccc6[nH]5)cc4)cc3)nc2c1)N1CCCCC1 | 0.12 (≈ 0.193 µM) | 0.12 (≈ 0.193 µM) | 2 (≈ 3.21 µM) | 0.5 (≈ 0.803 µM) | < 0.06 | 0.25 (≈ 0.401 µM) | 0.25 (≈ 0.401 µM) | 0.25 (≈ 0.401 µM) | < 0.06 | 8 (≈ 12.8 µM) | 0.12 (≈ 0.193 µM) | < 0.06 | 0.25 (≈ 0.401 µM)
CC1CCN(C(=N)c2ccc3[nH]c(-c4ccc(Oc5ccc(-c6nc7cc(C(=N)N8CCC(C)CC8)ccc7[nH]6)cc5)cc4)nc3c2)CC1 | 0.12 (≈ 0.184 µM) | 0.25 (≈ 0.384 µM) | 4 (≈ 6.15 µM) | 0.25 (≈ 0.384 µM) | 0.12 (≈ 0.184 µM) | < 0.06 | 1 (≈ 1.54 µM) | 0.25 (≈ 0.384 µM) | 0.12 (≈ 0.184 µM) | 4 (≈ 6.15 µM) | 0.25 (≈ 0.384 µM) | 0.12 (≈ 0.184 µM) | 0.5 (≈ 0.768 µM)
CCC(C)NC(=N)c1ccc2[nH]c(-c3ccc(Oc4ccc(-c5nc6cc(C(=N)NC(C)CC)ccc6[nH]5)cc4)cc3)nc2c1 (configuration not stated) | 0.12 (≈ 0.2 µM) | 0.25 (≈ 0.418 µM) | 16 (≈ 26.7 µM) | 0.5 (≈ 0.835 µM) | 0.12 (≈ 0.2 µM) | < 0.06 | 0.5 (≈ 0.835 µM) | 0.5 (≈ 0.835 µM) | < 0.06 | 2 (≈ 3.34 µM) | < 0.06 | < 0.06 | 0.25 (≈ 0.418 µM)
N=C(c1ccc2[nH]c(-c3ccc(Oc4ccc(-c5nc6cc(C(=N)N7CCOCC7)ccc6[nH]5)cc4)cc3)nc2c1)N1CCOCC1 | 0.5 (≈ 0.798 µM) | 0.5 (≈ 0.798 µM) | 8 (≈ 12.8 µM) | 0.5 (≈ 0.798 µM) | 0.25 (≈ 0.399 µM) | 0.12 (≈ 0.191 µM) | 2 (≈ 3.19 µM) | 1 (≈ 1.6 µM) | 0.5 (≈ 0.798 µM) | 16 (≈ 25.5 µM) | 0.5 (≈ 0.798 µM) | 0.5 (≈ 0.798 µM) | 0.5 (≈ 0.798 µM)
N=C(c1ccc2[nH]c(-c3ccc(Oc4ccc(-c5nc6cc(C(=N)N7CCCC7)ccc6[nH]5)cc4)cc3)nc2c1)N1CCCC1 | 0.12 (≈ 0.202 µM) | 0.25 (≈ 0.42 µM) | 2 (≈ 3.36 µM) | 0.5 (≈ 0.841 µM) | 0.12 (≈ 0.202 µM) | 0.12 (≈ 0.202 µM) | 0.5 (≈ 0.841 µM) | 0.25 (≈ 0.42 µM) | < 0.06 | 4 (≈ 6.73 µM) | < 0.06 | < 0.06 | 0.25 (≈ 0.42 µM)
CC1CC(C)CN(C(=N)c2ccc3[nH]c(-c4ccc(Oc5ccc(-c6nc7cc(C(=N)N8CC(C)CC(C)C8)ccc7[nH]6)cc5)cc4)nc3c2)C1 (configuration not stated) | 0.5 (≈ 0.737 µM) | 0.25 (≈ 0.368 µM) | 4 (≈ 5.89 µM) | 0.5 (≈ 0.737 µM) | 0.25 (≈ 0.368 µM) | 1 (≈ 1.47 µM) | 2 (≈ 2.95 µM) | 0.5 (≈ 0.737 µM) | 0.5 (≈ 0.737 µM) | 8 (≈ 11.8 µM) | 0.5 (≈ 0.737 µM) | 0.25 (≈ 0.368 µM) | 1 (≈ 1.47 µM)
